Measured values published in PubChem BioAssay (NCI).
Where “and” joins values, the source holds several entries; their conditions need not be identical. Equal values may be shown once.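 1) Cells in 96-well plates. 2) Compound, 48 h, 5 concentrations. 3) Linear interpolation between surrounding doses. 4) Unreached endpoint = highest concentration. GI50: concentration for 50% inhibition of growth. TGI marks complete inhibition of growth.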

Columns and labels:
Assay in all cases: NCI anticancer screen, dose series, 48 h
U251 CNS = system: U251 CNS
OVCAR-8 ovarian = system: OVCAR-8 ovarian
HCC-2998 colon = system: HCC-2998 colon
A549 NSCLC = system: A549 NSCLC
SNB-75 CNS = system: SNB-75 CNS
OVCAR-5 ovarian = system: OVCAR-5 ovarian
HT29 colon = system: HT29 colon
HCT-15 colon = system: HCT-15 colon
MDA-MB-231 breast = system: MDA-MB-231 breast
SK-MEL-28 melanoma = system: SK-MEL-28 melanoma

Row | SMILES | TGI (U251 CNS) | TGI (OVCAR-8 ovarian) | TGI (HCC-2998 colon) | TGI (A549 NSCLC) | TGI (SNB-75 CNS) | TGI (OVCAR-5 ovarian) | TGI (HT29 colon) [µM] | TGI (HCT-15 colon) | TGI (MDA-MB-231 breast) | TGI (SK-MEL-28 melanoma) | GI50 (U251 CNS) [µM] | GI50 (OVCAR-8 ovarian) [µM] | GI50 (HCC-2998 colon) [µM] | GI50 (A549 NSCLC) [µM] | GI50 (SNB-75 CNS) [µM] | GI50 (OVCAR-5 ovarian) [µM] | GI50 (HCT-15 colon) [µM] | GI50 (MDA-MB-231 breast) [µM] | GI50 (SK-MEL-28 melanoma) [µM]
1 | C=CC(C)(C)NC(C(=O)N1CCC[C@H]1c1nc(-c2nc(C(=O)OCC=C(C)C)c(C)o2)c(C)o1)C(C)C (some centres undefined) | > 78.1 µM | > 100 µM | > 100 µM | > 100 µM | > 100 µM | > 100 µM | > 86.8 | > 95.5 µM | > 100 µM | > 100 µM |  |  |  |  |  |  |  |  | 
2 | O=S(=O)(O)c1c(Cl)c(Cl)c(O)c2ncccc12 | 47.2 µM | 51.3 µM | 31.4 µM | 28.3 µM | 39.3 µM | 42 µM | 24 | 27.1 µM | > 93.1 µM | 39.8 µM |  |  |  |  |  |  |  |  | 
3 | Cc1cc(-c2nc3cc(F)ccc3s2)ccc1N | > 91.7 µM | > 100 µM | > 100 µM | > 100 µM | > 79.1 µM | > 100 µM | > 100 | > 100 µM | > 73.6 µM | > 100 µM |  |  |  |  |  |  |  |  | 
4 | OC1C2CCCCN2C[C@@H](O)[C@H]1O (some centres undefined) | > 100 µM | > 100 µM | > 100 µM | > 100 µM | > 100 µM | > 100 µM | > 100 | > 100 µM | > 100 µM | > 100 µM |  |  |  |  |  |  |  |  | 
5 | COc1ccc(/C(C)=C2\CCCN(Cc3ccccc3)C2)cc1 | 40.3 µM | 35.9 µM | 44.7 µM | 86 µM | 73.1 µM | > 100 µM | 39.5 | 46.1 µM | 57.9 µM | 58.4 µM |  |  |  |  |  |  |  |  | 
6 | Cn1c2ncccc2n2c(=O)cc(O)cc12 | > 100 µM | > 100 µM | > 100 µM | > 100 µM | > 100 µM | > 100 µM | > 100 | > 100 µM | > 100 µM | > 100 µM |  |  |  |  |  |  |  |  | 
7 | CNC(=O)O/N=C1\N(C)CN(c2ccccc2)C12CCN(CCCC(=O)c1ccc(F)cc1)CC2 | > 100 µM | > 100 µM | > 100 µM | > 100 µM | 24.3 µM | > 100 µM | > 100 | > 100 µM | > 100 µM | > 100 µM |  |  |  |  |  |  |  |  | 
8 | CC(C)(C)OC(=O)N(O)CCCn1cnc2c(NC3CC3)ncnc21 | > 100 µM | > 100 µM | > 100 µM | > 100 µM | > 100 µM | > 100 µM | > 100 | > 100 µM | > 100 µM | > 100 µM |  |  |  |  |  |  |  |  | 
9 | CC1=CC2(C)C=C[C@@H]1C(=O)[C@@]1(C)CC[C@@](O)(C(C)C)[C@H]1CC2 | 33.1 µM | 32.6 µM | 34.6 µM | > 100 µM | 58.3 µM | 34.6 µM | 32.6 | 55.8 µM | 35.5 µM | 41.7 µM |  |  |  |  |  |  |  |  | 
10 | COc1ccc2nc3ccc(OC)cc3c(S(=O)Cc3ccccc3)c2c1 (centres undefined) | > 56.1 µM | 12.7 µM | 38.4 µM | 37.3 µM | 28.8 µM | 35.3 µM | 10.6 | > 48.9 µM | 30.8 µM | 27.2 µM |  |  |  |  |  |  |  |  | 
11 | CC1(C=O)CC(CCc2ccccc2)NC1Cc1ccc(O)cc1 (centres undefined) | 26.5 µM | 43.7 µM | 24.9 µM | 30.1 µM | 28.6 µM | 31.5 µM | 29.5 | 43.3 µM | 26.5 µM | 54 µM |  |  |  |  |  |  |  |  | 
12 | COC(=O)CN1Cc2cc(C)cc(c2O)CN(CC(=O)OC)Cc2cc(C)cc(c2O)CN(CC(=O)OC)Cc2cc(C)cc(c2O)CN(CC(=O)OC)Cc2cc(C)cc(c2O)C1 | 50 µM and > 100 µM | 50 µM and > 100 µM | 50 µM and > 100 µM | 50 µM and > 100 µM | 50 µM and > 100 µM | 50 µM and > 100 µM | 50 | 50 µM and > 100 µM | 50 µM and > 100 µM | 50 µM and > 100 µM | 30.9 | 18.7 | 25.2 | 46.4 | 42.5 | 5.26 | 25 | 34.7 | 27.9
13 | COc1cc(-c2nc(N)c(C#N)c3c2CCS(=O)(=O)c2ccc(C)cc2-3)cc(OC)c1OC | > 100 µM | 26.9 µM | > 100 µM | > 100 µM | 75.9 µM | > 100 µM | > 100 | > 100 µM | 56.3 µM | > 100 µM |  |  |  |  |  |  |  |  | 
14 | Nc1ncnc2c1ccn2CC#CCO | > 100 µM | > 100 µM | > 100 µM | > 100 µM | > 100 µM | > 100 µM | > 100 | > 100 µM | > 100 µM | > 100 µM |  |  |  |  |  |  |  |  | 
15 | COc1ccc(COCC[C@H](C)OC2OC(CO[Si](C)(C)C(C)(C)C)C(O)C(O)C2O)cc1 (some centres undefined) | > 100 µM | > 100 µM | > 100 µM | > 100 µM | > 100 µM | > 100 µM | > 100 | > 100 µM | > 100 µM | > 100 µM |  |  |  |  |  |  |  |  | 
16 | COc1ccc(/C=C2/SC(=Nc3ccccc3)N(NC(=O)Cc3ccccc3)C2=O)cc1 | > 100 µM | > 100 µM | > 100 µM | > 100 µM | > 100 µM | > 100 µM | > 100 | > 100 µM | > 100 µM | > 100 µM |  |  |  |  |  |  |  |  | 
